From article PMC5684193 (2017)

Assays:
[1] = test system: CBA-1-strand1 (DNA, aptamer) AAAAATGGGTCGGGAGGGAAGGGGGTTGGGGGTGCGGG; assay: ITC; settings: 140 mM NaCl, 2.5 mM KCl, K/Na phosphate (PBS), 2.5 mM MgCl2; PBS with MgCl2, pH 7.4, 25 °C; 250 µM codeine in syringe
[2] = test system: CBA-1-3G3T (DNA, aptamer) CCCCCTTTTTCTTTATTTAAGGGGGTTGGGGGTGCTTT; assay: ITC; settings: 140 mM NaCl, 2.5 mM KCl, K/Na phosphate (PBS), 2.5 mM MgCl2; PBS with MgCl2, pH 7.4, 25 °C; 250 µM codeine in syringe
[3] = test system: CBA-1-A20AP (DNA, aptamer, 2-aminopurine at 20) CCCCCTGGGTCGGGAGGGAAGGGGGTTGGGGGTGCGGG; assay: 2-aminopurine fluorescence quenching; settings: 140 mM NaCl, 2.5 mM KCl, K/Na phosphate (PBS), 2.5 mM MgCl2; 1 µM codeine, 25 °C
[4] = test system: CBA-0 (DNA, aptamer) CCCCCTGGGTCGGGAGGGAAGGGGGTTGGGGGTGCGG; assay: ITC; settings: 140 mM NaCl, 2.5 mM KCl, K/Na phosphate (PBS), 2.5 mM MgCl2; PBS with MgCl2, pH 7.4, 25 °C
[5] = test system: CBA-1-G34C35R (DNA, aptamer) CCCCCTGGGTCGGGAGGGAAGGGGGTTGGGGGTGGG; assay: ITC; settings: 140 mM NaCl, 2.5 mM KCl, K/Na phosphate (PBS), 2.5 mM MgCl2; PBS with MgCl2, pH 7.4, 25 °C; 250 µM codeine in syringe
[6] = test system: CBA-1-A14AP (DNA, aptamer, 2-aminopurine at 14) CCCCCTGGGTCGGGAGGGAAGGGGGTTGGGGGTGCGGG; assay: 2-aminopurine fluorescence quenching; settings: 140 mM NaCl, 2.5 mM KCl, K/Na phosphate (PBS), 2.5 mM MgCl2; 1 µM codeine, 25 °C
[7] = test system: CBA-1-1/CBA-1-2 (DNA, aptamer) CCCCCTGGGTCGGGAGGGAAGGGGGT/TGGGGGTGCGGG; assay: UV melting at 265 nm; settings: 140 mM NaCl, 2.5 mM KCl, K/Na phosphate (PBS), 2.5 mM MgCl2; PBS with MgCl2, pH 7.4
[8] = test system: CBA-1-1/CBA-1-2 (DNA, aptamer) CCCCCTGGGTCGGGAGGGAAGGGGGT/TGGGGGTGCGGG; assay: 1H NMR; settings: 140 mM NaCl, 2.5 mM KCl, K/Na phosphate (PBS), 10% D2O, 25 °C, 200 µM DNA, 400 µM codeine
[9] = test system: CBA-1-AAT (DNA, aptamer) TTTCCCCCTGGGTCGGGAGGGAAGGGGGAAATTAAAGGGGGTGCGGG; assay: ITC; settings: 140 mM NaCl, 2.5 mM KCl, K/Na phosphate (PBS), 2.5 mM MgCl2; PBS with MgCl2, pH 7.4, 25 °C
[10] = test system: CBA-1-G34R (DNA, aptamer) CCCCCTGGGTCGGGAGGGAAGGGGGTTGGGGGTCGGG; assay: ITC; settings: 140 mM NaCl, 2.5 mM KCl, K/Na phosphate (PBS), 2.5 mM MgCl2; PBS with MgCl2, pH 7.4, 25 °C; 250 µM codeine in syringe
[11] = test system: CBA-1-GGC-4G4 (DNA, aptamer) CCCCCCCCTGGGGTCGGGGAGGGGAAGGGGGGGGTTGGGGGGGGTGCGGGG; assay: ITC; settings: 140 mM NaCl, 2.5 mM KCl, K/Na phosphate (PBS), 2.5 mM MgCl2; PBS with MgCl2, pH 7.4, 25 °C
[12] = test system: FAM-labeled CBA-1 (DNA, aptamer) CCCCCTGGGTCGGGAGGGAAGGGGGTTGGGGGTGCGGG; assay: DMS footprinting; settings: 140 mM NaCl, 2.5 mM KCl, K/Na phosphate (PBS), 2.5 mM MgCl2; binding buffer, room temperature
[13] = test system: FAM-labeled CBA-0 (DNA, aptamer) CCCCCTGGGTCGGGAGGGAAGGGGGTTGGGGGTGCGG; assay: DMS footprinting; settings: 140 mM NaCl, 2.5 mM KCl, K/Na phosphate (PBS), 2.5 mM MgCl2; binding buffer, room temperature
[14] = test system: CBA-1-GGC (DNA, aptamer) CCCCCCCCTGGGTCGGGAGGGAAGGGGGGGGTTGGGGGGGGTGCGGG; assay: ITC; settings: 140 mM NaCl, 2.5 mM KCl, K/Na phosphate (PBS), 2.5 mM MgCl2; PBS with MgCl2, pH 7.4, 25 °C
[15] = test system: CBA-1-G34T (DNA, aptamer) CCCCCTGGGTCGGGAGGGAAGGGGGTTGGGGGTTCGGG; assay: ITC; settings: 140 mM NaCl, 2.5 mM KCl, K/Na phosphate (PBS), 2.5 mM MgCl2; PBS with MgCl2, pH 7.4, 25 °C
[16] = test system: CBA-1 (DNA, aptamer) CCCCCTGGGTCGGGAGGGAAGGGGGTTGGGGGTGCGGG; assay: UV melting at 265 nm; settings: 140 mM NaCl, 2.5 mM KCl, K/Na phosphate (PBS), 2.5 mM MgCl2; PBS with MgCl2, pH 7.4; 4 µM DNA, 8 µM codeine
[17] = test system: CBA-1 (DNA, aptamer) CCCCCTGGGTCGGGAGGGAAGGGGGTTGGGGGTGCGGG; assay: ITC; settings: 140 mM NaCl, 2.5 mM KCl, K/Na phosphate (PBS), 2.5 mM MgCl2; PBS with MgCl2, pH 7.4, 25 °C
[18] = test system: CBA-1-A15AP (DNA, aptamer, 2-aminopurine at 15) CCCCCTGGGTCGGGAGGGAAGGGGGTTGGGGGTGCGGG; assay: 2-aminopurine fluorescence quenching; settings: 140 mM NaCl, 2.5 mM KCl, K/Na phosphate (PBS), 2.5 mM MgCl2; 1 µM codeine, 25 °C
[19] = test system: CBA-1-strand21 (DNA, aptamer) GGGGGTGGGTCGGGAGGGAACCCCCTTGGGGGTGCGGG; assay: ITC; settings: 140 mM NaCl, 2.5 mM KCl, K/Na phosphate (PBS), 2.5 mM MgCl2; PBS with MgCl2, pH 7.4, 25 °C; 250 µM codeine in syringe
[20] = test system: CBA-1-strand3 (DNA, aptamer) CCCCCTGGGTCGGGAGGGAAGGGGGTTTATATTGCGGG; assay: ITC; settings: 140 mM NaCl, 2.5 mM KCl, K/Na phosphate (PBS), 2.5 mM MgCl2; PBS with MgCl2, pH 7.4, 25 °C; 250 µM codeine in syringe
[21] = test system: CBA-1-G14A (DNA, aptamer) CCCCCTGGGTCGGAAGGGAAGGGGGTTGGGGGTGCGGG; assay: ITC; settings: 140 mM NaCl, 2.5 mM KCl, K/Na phosphate (PBS), 2.5 mM MgCl2; PBS with MgCl2, pH 7.4, 25 °C

## COc1ccc2c3c1O[C@H]1[C@@H](O)C=C[C@H]4[C@@H](C2)N(C)CC[C@@]341
[1]
  binding: no
[2]
  binding: no
[3]
  binding: yes
[4]
  Kd: 250 ± 80 nM
[5]
  binding: no
[6]
  binding: yes
[7]
  ∆Tm: ~ 4 °C
[8]
  binding: yes
[9]
  Kd: 70 ± 30 nM
[10]
  binding: no
[11]
  Kd: 300 ± 170 nM
[12]
  binding: yes
[13]
  binding: yes
[14]
  Kd: 50 ± 20 nM
[15]
  binding: weak
[16]
  binding: yes
[17]
  Kd: 70 ± 10 nM
[18]
  binding: yes
[19]
  binding: no
[20]
  binding: no
[21]
  binding: yes
